# Data taken from the kinase profiling compilation of Christmann-Franck et al. (2016).
# How the values were obtained:
# Assay in all cases: KINOMEscan competition binding
# Conditions in all cases: compound 2.0 µM
# [1] = target: STK39 (human) (UniProt Q9UEW8)
# [2] = target: MYLK (human) (UniProt Q15746)
# [3] = target: MAPK6 (human) (UniProt Q16659)
# [4] = target: RET (human) (UniProt P07949)
# [5] = target: MAPK10 (human) (UniProt P53779)
# [6] = target: DAPK3 (human) (UniProt O43293)
# [7] = target: STK32C (human) (UniProt Q86UX6)
# [8] = target: MKNK1 (human) (UniProt Q9BUB5)
# [9] = target: HIPK4 (human) (UniProt Q8NE63)
# [10] = target: PKN1 (human) (UniProt Q16512)
# [11] = target: PRKCD (human) (UniProt Q05655)
# [12] = target: CSNK1G1 (human) (UniProt Q9HCP0)
# [13] = target: BLK (human) (UniProt P51451)
# [14] = target: PI4KB (human) (UniProt Q9UBF8)
# [15] = target: MAP3K4 (human) (UniProt Q9Y6R4)
# [16] = target: NTRK1 (human) (UniProt P04629)
# [17] = target: INSR (human) (UniProt P06213)
# [18] = target: MYO3A (human) (UniProt Q8NEV4)
# [19] = target: GSK3B (human) (UniProt P49841)
# [20] = target: CDK4 CCND1 (human) (UniProt P11802+P24385)
# [21] = target: GAK (human) (UniProt O14976)
# [22] = target: FLT1 (human) (UniProt P17948)
# [23] = target: MAP3K11 (human) (UniProt Q16584)
# [24] = target: CAMK2G (human) (UniProt Q13555)
# [25] = test system: FLT3 (human), P36888 [ITD]
# [26] = target: CDK2 (human) (UniProt P24941)
# [27] = test system: KIT (human), P10721 [L576P]
# [28] = target: MAPKAPK5 (human) (UniProt Q8IW41)
# [29] = target: STK25 (human) (UniProt O00506)
# [30] = target: TLK1 (human) (UniProt Q9UKI8)
# [31] = target: SIK3 (human) (UniProt Q9Y2K2)
# [32] = target: SYK (human) (UniProt P43405)
# [33] = target: RPS6KA6 KD2 (human) (UniProt Q9UK32)
# [34] = target: ADCK3 (human) (UniProt Q8NI60)
# [35] = target: DCLK3 (human) (UniProt Q9C098)
# [36] = target: LATS2 (human) (UniProt Q9NRM7)
# [37] = target: GRK7 (human) (UniProt Q8WTQ7)
# [38] = target: TNK2 (human) (UniProt Q07912)
# [39] = target: TRPM6 (human) (UniProt Q9BX84)
# [40] = target: MAPK9 (human) (UniProt P45984)
# [41] = target: MYLK2 (human) (UniProt Q9H1R3)
# [42] = target: MAP3K13 (human) (UniProt O43283)
# [43] = target: FYN (human) (UniProt P06241)
# Sequence of RET (human) (P07949 whole entry, looked up): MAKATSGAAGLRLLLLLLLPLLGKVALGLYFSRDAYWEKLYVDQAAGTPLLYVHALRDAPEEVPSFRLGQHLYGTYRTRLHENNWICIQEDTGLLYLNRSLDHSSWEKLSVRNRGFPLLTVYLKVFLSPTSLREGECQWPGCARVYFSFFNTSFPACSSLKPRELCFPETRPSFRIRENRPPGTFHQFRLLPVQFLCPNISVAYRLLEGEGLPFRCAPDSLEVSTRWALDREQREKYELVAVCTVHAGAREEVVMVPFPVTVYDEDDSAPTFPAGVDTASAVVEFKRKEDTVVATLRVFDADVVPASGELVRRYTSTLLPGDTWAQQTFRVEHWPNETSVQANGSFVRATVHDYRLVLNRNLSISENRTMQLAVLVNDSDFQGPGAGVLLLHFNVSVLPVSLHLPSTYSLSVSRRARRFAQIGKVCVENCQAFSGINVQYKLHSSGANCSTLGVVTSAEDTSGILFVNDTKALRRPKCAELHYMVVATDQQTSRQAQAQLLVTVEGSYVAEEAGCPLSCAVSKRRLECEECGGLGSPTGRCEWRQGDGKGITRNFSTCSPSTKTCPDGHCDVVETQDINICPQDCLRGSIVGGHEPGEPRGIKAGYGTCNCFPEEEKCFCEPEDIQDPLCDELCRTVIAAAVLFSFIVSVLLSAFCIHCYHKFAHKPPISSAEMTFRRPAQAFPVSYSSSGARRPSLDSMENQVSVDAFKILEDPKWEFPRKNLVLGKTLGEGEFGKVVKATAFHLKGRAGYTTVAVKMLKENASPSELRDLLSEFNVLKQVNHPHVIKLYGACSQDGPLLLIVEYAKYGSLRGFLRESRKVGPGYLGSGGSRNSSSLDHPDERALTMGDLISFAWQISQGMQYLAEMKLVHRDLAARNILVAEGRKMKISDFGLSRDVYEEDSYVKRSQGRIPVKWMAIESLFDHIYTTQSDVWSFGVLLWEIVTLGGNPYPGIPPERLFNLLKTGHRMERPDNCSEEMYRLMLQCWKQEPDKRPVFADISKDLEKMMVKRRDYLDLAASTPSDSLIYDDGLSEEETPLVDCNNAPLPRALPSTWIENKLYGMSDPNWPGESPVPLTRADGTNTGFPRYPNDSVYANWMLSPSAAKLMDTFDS
# Sequence of MAP3K11 (human) (Q16584 whole entry, looked up): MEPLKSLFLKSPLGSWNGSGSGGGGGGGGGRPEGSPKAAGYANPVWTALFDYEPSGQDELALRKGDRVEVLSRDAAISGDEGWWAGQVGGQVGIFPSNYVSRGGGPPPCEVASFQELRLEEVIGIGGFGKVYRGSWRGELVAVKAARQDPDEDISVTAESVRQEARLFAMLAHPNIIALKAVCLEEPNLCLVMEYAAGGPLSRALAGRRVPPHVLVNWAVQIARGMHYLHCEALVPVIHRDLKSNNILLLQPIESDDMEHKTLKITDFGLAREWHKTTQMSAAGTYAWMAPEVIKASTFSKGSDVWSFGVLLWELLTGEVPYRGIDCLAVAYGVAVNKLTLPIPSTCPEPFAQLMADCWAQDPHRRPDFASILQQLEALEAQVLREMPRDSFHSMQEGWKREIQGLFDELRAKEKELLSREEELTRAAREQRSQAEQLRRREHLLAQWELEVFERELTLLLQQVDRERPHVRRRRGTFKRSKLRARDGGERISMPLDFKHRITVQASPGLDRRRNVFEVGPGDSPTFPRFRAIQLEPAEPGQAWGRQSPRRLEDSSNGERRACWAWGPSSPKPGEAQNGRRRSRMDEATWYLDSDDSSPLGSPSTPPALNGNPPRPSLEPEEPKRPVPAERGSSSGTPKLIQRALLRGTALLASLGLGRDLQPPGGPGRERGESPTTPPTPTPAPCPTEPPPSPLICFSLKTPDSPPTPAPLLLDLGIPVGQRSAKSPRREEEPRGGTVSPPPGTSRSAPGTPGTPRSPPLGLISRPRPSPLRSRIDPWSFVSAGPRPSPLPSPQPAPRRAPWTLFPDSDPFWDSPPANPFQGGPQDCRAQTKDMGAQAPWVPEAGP
# Sequence of INSR (human) (P06213 whole entry, looked up): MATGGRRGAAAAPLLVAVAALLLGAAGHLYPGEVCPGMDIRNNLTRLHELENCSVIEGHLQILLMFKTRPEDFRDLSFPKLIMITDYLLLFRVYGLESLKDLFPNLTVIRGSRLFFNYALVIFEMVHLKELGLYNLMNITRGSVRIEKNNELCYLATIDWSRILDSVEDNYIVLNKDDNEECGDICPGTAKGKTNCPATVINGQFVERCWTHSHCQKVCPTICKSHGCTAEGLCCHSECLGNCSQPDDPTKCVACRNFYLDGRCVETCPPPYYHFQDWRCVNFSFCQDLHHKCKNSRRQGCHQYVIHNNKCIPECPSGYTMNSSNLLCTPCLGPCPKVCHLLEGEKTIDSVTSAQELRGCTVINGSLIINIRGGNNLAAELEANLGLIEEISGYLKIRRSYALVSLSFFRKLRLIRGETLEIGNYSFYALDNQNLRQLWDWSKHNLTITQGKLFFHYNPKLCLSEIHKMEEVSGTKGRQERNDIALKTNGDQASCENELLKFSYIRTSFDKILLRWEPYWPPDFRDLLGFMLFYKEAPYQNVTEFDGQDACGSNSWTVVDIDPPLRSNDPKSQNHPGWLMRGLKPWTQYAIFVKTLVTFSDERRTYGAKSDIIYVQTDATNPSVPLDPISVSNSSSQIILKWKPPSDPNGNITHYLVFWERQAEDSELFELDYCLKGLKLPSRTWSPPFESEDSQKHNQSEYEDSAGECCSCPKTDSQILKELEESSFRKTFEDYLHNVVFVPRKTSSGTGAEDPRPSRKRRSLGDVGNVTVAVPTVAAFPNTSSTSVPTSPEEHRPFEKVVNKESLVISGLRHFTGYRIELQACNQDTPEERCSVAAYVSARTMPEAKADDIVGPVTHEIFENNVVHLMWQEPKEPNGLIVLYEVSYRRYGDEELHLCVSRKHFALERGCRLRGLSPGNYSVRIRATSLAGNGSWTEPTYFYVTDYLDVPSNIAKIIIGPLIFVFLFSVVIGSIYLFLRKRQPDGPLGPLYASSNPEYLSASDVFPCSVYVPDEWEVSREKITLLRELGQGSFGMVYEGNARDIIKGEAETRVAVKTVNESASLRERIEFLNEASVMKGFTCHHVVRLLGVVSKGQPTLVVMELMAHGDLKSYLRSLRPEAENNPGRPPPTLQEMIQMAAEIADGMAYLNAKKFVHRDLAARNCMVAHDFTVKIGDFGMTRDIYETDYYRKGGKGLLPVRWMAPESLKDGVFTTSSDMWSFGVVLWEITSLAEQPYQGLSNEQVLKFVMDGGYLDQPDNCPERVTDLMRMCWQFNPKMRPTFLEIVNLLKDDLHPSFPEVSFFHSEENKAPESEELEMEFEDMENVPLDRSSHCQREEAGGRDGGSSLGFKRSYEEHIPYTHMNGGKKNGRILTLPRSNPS
# Sequence of BLK (human) (P51451 whole entry, looked up): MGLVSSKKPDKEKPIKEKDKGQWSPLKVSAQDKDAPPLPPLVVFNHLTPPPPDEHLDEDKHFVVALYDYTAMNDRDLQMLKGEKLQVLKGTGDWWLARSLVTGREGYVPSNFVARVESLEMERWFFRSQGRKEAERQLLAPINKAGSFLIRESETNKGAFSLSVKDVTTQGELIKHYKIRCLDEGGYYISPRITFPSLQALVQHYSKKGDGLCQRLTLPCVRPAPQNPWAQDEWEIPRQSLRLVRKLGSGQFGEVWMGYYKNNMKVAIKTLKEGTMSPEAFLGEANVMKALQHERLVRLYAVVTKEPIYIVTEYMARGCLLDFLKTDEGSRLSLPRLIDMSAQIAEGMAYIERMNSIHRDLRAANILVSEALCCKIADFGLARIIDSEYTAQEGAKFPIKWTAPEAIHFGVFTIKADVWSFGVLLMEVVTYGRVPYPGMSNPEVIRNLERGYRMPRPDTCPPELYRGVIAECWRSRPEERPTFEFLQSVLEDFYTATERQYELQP
# Sequence of MAP3K13 (human) (O43283 whole entry, looked up): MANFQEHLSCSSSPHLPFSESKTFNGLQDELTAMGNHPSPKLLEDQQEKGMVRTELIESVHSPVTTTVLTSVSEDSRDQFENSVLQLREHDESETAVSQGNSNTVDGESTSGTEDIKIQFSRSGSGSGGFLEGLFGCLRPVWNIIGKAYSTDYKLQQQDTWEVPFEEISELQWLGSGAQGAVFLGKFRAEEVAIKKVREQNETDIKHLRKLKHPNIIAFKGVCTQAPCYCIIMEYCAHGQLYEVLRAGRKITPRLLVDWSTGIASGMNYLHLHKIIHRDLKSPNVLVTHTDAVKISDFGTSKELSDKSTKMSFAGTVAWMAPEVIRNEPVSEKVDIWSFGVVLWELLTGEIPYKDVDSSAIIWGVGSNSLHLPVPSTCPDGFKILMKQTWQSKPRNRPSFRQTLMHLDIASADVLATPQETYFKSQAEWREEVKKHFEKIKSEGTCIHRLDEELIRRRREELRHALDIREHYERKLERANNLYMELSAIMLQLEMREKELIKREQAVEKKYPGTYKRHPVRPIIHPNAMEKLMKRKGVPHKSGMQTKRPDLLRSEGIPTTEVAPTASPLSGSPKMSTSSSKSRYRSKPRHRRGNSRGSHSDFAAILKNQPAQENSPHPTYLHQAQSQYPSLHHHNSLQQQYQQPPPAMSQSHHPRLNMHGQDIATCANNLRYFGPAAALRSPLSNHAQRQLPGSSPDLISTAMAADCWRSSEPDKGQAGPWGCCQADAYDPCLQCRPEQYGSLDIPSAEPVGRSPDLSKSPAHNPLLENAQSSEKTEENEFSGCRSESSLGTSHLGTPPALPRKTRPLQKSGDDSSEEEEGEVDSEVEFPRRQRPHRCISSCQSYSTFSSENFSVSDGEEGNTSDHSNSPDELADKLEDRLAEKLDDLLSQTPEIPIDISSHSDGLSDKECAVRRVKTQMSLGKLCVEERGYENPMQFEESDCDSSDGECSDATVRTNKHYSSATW
structure (smiles),measurement,setting,value
N#Cc1ccc2ncnc(NCCc3ccc4ccccc4c3)c2c1,"kinase still bound, per cent of control",[1],98%
same,"kinase still bound, per cent of control",[2],100%
same,"kinase still bound, per cent of control",[3],91%
same,"kinase still bound, per cent of control",[4],90%
same,"kinase still bound, per cent of control",[5],100%
same,"kinase still bound, per cent of control",[6],74%
same,"kinase still bound, per cent of control",[7],100%
same,"kinase still bound, per cent of control",[8],64%
same,"kinase still bound, per cent of control",[9],81%
same,"kinase still bound, per cent of control",[10],100%
same,"kinase still bound, per cent of control",[11],91%
same,"kinase still bound, per cent of control",[12],83%
same,"kinase still bound, per cent of control",[13],65%
same,"kinase still bound, per cent of control",[14],95%
same,"kinase still bound, per cent of control",[15],86%
same,"kinase still bound, per cent of control",[16],100%
same,"kinase still bound, per cent of control",[17],100%
same,"kinase still bound, per cent of control",[18],100%
same,"kinase still bound, per cent of control",[19],89%
same,"kinase still bound, per cent of control",[20],100%
same,"kinase still bound, per cent of control",[21],100%
same,"kinase still bound, per cent of control",[22],89%
same,"kinase still bound, per cent of control",[23],89%
same,"kinase still bound, per cent of control",[24],100%
same,"kinase still bound, per cent of control",[25],87%
same,"kinase still bound, per cent of control",[26],93%
same,"kinase still bound, per cent of control",[27],86%
same,"kinase still bound, per cent of control",[28],79%
same,"kinase still bound, per cent of control",[29],100%
same,"kinase still bound, per cent of control",[30],92%
same,"kinase still bound, per cent of control",[31],100%
same,"kinase still bound, per cent of control",[32],100%
same,"kinase still bound, per cent of control",[33],86%
same,"kinase still bound, per cent of control",[34],100%
same,"kinase still bound, per cent of control",[35],99%
same,"kinase still bound, per cent of control",[36],100%
same,"kinase still bound, per cent of control",[37],100%
same,"kinase still bound, per cent of control",[38],97%
same,"kinase still bound, per cent of control",[39],100%
same,"kinase still bound, per cent of control",[40],97%
same,"kinase still bound, per cent of control",[41],99%
same,"kinase still bound, per cent of control",[42],100%
same,"kinase still bound, per cent of control",[43],98%
